# Reference: US20160227774A1 (priority 2015, published 2016)
# Where “and” joins values, the source holds several entries; their conditions need not be identical. Identical values can stand only once. Counter-ions that a name gives are not always drawn. Like-named read-outs stand apart in the source and are kept apart here.
# Columns and labels:
# [1] = system: Ca. Liberibacter asiaticus; assay type: in vivo, Candidatus Liberibacter asiaticus; settings: for CT, 1 (mean CT values 1-week after injection) / CT, 0 (mean CT values prior to injection): 4 trees; for CT, 0 (mean CT values prior to injection): baseline; for Effect on Las bacterial populations (in words): second trial, statistical significance only in the first trial
# HLB disease = test: Trial I (Example 3): HLB disease severity (sAUDPS), Midsweet orange, foliar spray; assay type: in vivo, Citrus sinensis; settings: end of the experiment
# [2] = system: Candidatus Liberibacter asiaticus (Las); assay type: in vivo
# [3] = system: β-1,3-glucanase gene (PR-2), calS1, pp2; assay type: in vivo, Citrus sinensis; settings: for PR-2, calS1 or pp2 gene expression (in words): AA 60 μM, INA 0.1 mM
# [4] = system: Candidatus Liberibacter asiaticus (Las); assay type: in vivo; remark: listed apart in the source
# [5] = system: Candidatus Liberibacter asiaticus (Las); assay type: in vivo; settings: BABA 1.0 mM, 2-DDG 100 μM; for Reduction of Las titer compared to control at the end of the experiments: Example 5, Murcott mandarin (10-year), foliar spraying
# [6] = system: Candidatus Liberibacter asiaticus (Las); assay type: in vivo; settings: Example 6; Valencia sweet orange (4-year); BABA 0.2-1.0 mM, 2-DDG 100 μM; foliar spraying
# [7] = system: β-1,3-glucanase gene (PR-2), calS1, pp2; assay type: in vivo, Citrus sinensis; settings: 2-DDG 100 μM
# Midsweet orange [8] = system: Midsweet orange; design: species or system Citrus sinensis; settings: in vivo
# Midsweet orange [9] = assay type: in vivo, Citrus sinensis; settings: BABA 150 μM, INA 0.5 mM, AA 600 μM, CuSO4 0.3 mM, alone or combined
# [10] = Trial 2 (September, 2014), trunk injection SA 8, OTC 7, OA, PPD, ICD, AA, BABA 5 mg ai/tree
# [11] = November 2013, BABA 15 μM, INA 0.1 mM, AA 60 μM
# [12] = November 2013, BABA 0.2 mM, INA 0.1 mM, AA 60 μM, 2-DDG 10 μM
# [13] = November 2013, BABA 1.0 mM, INA 0.5 mM, BTH 1.0 mM, AA 600 μM, 2-DDG 100 μM, alone or combined
# [14] = October 2014 (end of the experiment), BABA 0.2 mM, INA 0.1 mM, AA 60 μM, 2-DDG 10 μM
# [15] = October 2014 (end of the experiment), BABA 1.0 mM, INA 0.5 mM, BTH 1.0 mM, AA 600 μM, 2-DDG 100 μM, alone or combined
# [16] = Trial 1 (July, 2014), trunk injection SA 32, OA 40, PPD 40, ICD 67, OTC 50 mg ai/tree
SMILES,"ΔCT = CT, 1 − CT, 0 [1, 10]","CT, 1 (mean CT values 1-week after injection) [1, 10]","CT, 0 (mean CT values prior to injection) [1, 10]","Effect on Las bacterial titer versus control one week after injection (in words) ([1]; trunk injection, both trials)","Las population [4, 12]","Las population [4, 14]","ΔCT = CT, 1 − CT, 0 [1, 16]","CT, 1 (mean CT values 1-week after injection) [1, 16]","CT, 0 (mean CT values prior to injection) [1, 16]",other results
"CC(N)CC(=O)O (racemic) [BABA, β-aminobutyric acid]",0.50,22.60,22.10,greatly decreased,(3.45 ± 0.32) × 10^6 Cells/g of plant tissue,(5.84 ± 0.25) × 10^6 Cells/g of plant tissue,,,,"HLB disease severity (sAUDPS) reduced by, compared with the negative control (HLB disease; AA 60 μM, BABA 15 μM): 28.6%; HLB disease severity (sAUDPS) reduced by, compared with the negative control (HLB disease; BABA 150 μM): 21.4%; Reduction of Las titer compared to control at the end of the experiments ([2]; Example 3, Midsweet orange (7-year), BABA 15 μM-150 μM, foliar spraying): 0.63 log unit per gram plant tissue; Las population [2, 11]: (3.67 ± 0.59) × 10^6 Cells/g of plant tissue; Las population ([2]; November 2013, BABA 150 μM): (6.48 ± 0.61) × 10^6 Cells/g of plant tissue; PR-2 gene expression (in words) ([3]; BABA 150 μM, 6 days after treatment): no significant change; PR-2 gene expression compared to the negative control ([3]; in vivo): 3.0 fold; pp2 (phloem protein-2) or calS1 expression (in words) ([3]; in vivo): no effect; Reduction of Las titer compared to control at the end of the experiments ([4]; Example 4, Midsweet orange (8-year), BABA 0.2 mM, foliar spraying): 0.66 log unit per gram plant tissue; Las population [4, 13]: (4.23 ± 1.22) × 10^6 Cells/g of plant tissue; Las population [4, 15]: (0.95 ± 0.26) × 10^7 Cells/g of plant tissue; Reduction of Las titer compared to control at the end of the experiments [5]: 0.66 log unit per gram plant tissue; Reduction of Las titer compared to control at the end of the experiments [6]: 0.68 log unit per gram plant tissue"
"O=CC[C@@H](O)[C@H](O)[C@H](O)CO [2-DDG, 2-deoxy-D-glucose]",,,,,(4.45 ± 0.94) × 10^6 Cells/g of plant tissue,(0.91 ± 0.32) × 10^7 Cells/g of plant tissue,,,,"Las population [4, 13]: (2.64 ± 0.76) × 10^6 Cells/g of plant tissue; Las population [4, 15]: (4.17 ± 1.02) × 10^6 Cells/g of plant tissue; PR-2, pp2 or calS1 induction (in words) [7]: not able to induce; Fruit acidity (Midsweet orange [8]): 0.73 a percent citric acid and 0.67 a percent citric acid and 0.69 a percent citric acid and 0.66 a percent citric acid; Fruit brix (Midsweet orange [8]): 9.63 a and 10.41 a and 9.20 a and 10.10 a; Fruit brix acidity ratio (Midsweet orange [8]): 15.19 a and 13.19 a and 15.17 a and 13.33 a; Reduction of Las titer compared to control at the end of the experiments [5]: 0.66 log unit per gram plant tissue; Reduction of Las titer compared to control at the end of the experiments [6]: 0.70 log unit per gram plant tissue"
"O=C1O[C@H]([C@@H](O)CO)C([O-])=C1O.[Na+] [AA, L-Ascorbic acid sodium salt, reference compound]",−0.50,21.65,22.15,,(2.99 ± 0.95) × 10^6 Cells/g of plant tissue,(3.98 ± 0.81) × 10^6 Cells/g of plant tissue,,,,"HLB disease severity (sAUDPS) reduced by, compared with the negative control (HLB disease; AA 60 μM, BABA 15 μM): 21.3%; Las population [2, 11]: (3.56 ± 0.57) × 10^6 Cells/g of plant tissue; PR-2, calS1 or pp2 gene expression (in words) [3]: not able to induce; Fruit brix acidity ratio (Midsweet orange [8]; sodium salt): 14.87 a and 12.55 a; Percent juice content (Midsweet orange [8]; sodium salt): 53.3 a and 51.1 a; Las population ([5]; Feb.2015, AA 600 μM, INA 0.5 mM, BTH 1.0 mM): (3.12 ± 0.22) × 10^7 a Cells/g of leaf tissue"
"CSC(=O)c1cccc2nnsc12 [ASM, acibenzolar-S-methyl]",,,,,,,,,,Effect on Las bacterial populations (in words) ([1]; trunk injection): moderately reduced
"O=S(=O)([O-])[O-].[Cu+2] [CuSO4, Copper Sulphate]",,,,,,,,,,Yield (Midsweet orange [9]; 2013): 28.4 c kg/tree; Yield (Midsweet orange [9]; 2014): 24.1 c kg/tree
"O=[N+]([O-])NC1=NCCN1Cc1ccc(Cl)nc1 [ICD, imidacloprid]",0.13,24.02,23.89,,,,0.08,24.50,24.42,Effect on Las bacterial titer versus control one week after injection (in words) ([1]; in vivo): did not statistically significantly reduce
"O=C(O)c1cc(Cl)nc(Cl)c1 [INA, 2,6-dichloro-isonicotinic acid, reference compound]",,,,did not statistically significantly reduce,(2.07 ± 0.33) × 10^6 Cells/g of plant tissue,(3.91 ± 0.85) × 10^6 Cells/g of plant tissue,,,,"Las population [2, 11]: (4.06 ± 0.25) × 10^6 Cells/g of plant tissue; Las population ([2]; October 2014 (end of the experiment), BABA 15 μM, INA 0.1 mM, AA 60 μM): (5.94 ± 0.36) × 10^6 Cells/g of plant tissue; PR-2, calS1 or pp2 gene expression (in words) [3]: not able to induce; Percent juice content (Midsweet orange [8]): 50.5 a and 51.1 a"
"O=C(O)C(=O)O [OA, oxalic acid]",0.70,26.17,25.47,significantly reduced,,,2.83,26.59,23.76,ΔCT compared with that of OTC (in words) ([1]; trunk injection): not significantly different
"CN(C)[C@@H]1C(O)=C(C(N)=O)C(=O)[C@@]2(O)C(O)=C3C(=O)c4c(O)cccc4[C@@](C)(O)[C@H]3[C@H](O)[C@@H]12 [OTC, oxytetracycline hydrochloride, reference compound]",0.90,25.54,24.64,,,,1.33,29.28,27.95,
"O=P([O-])([O-])O.[K+].[K+] [PPD, potassium phosphate dibasic, reference compound]",0.34,23.63,23.29,,,,2.64,26.56,23.92,Effect on Las bacterial populations (in words) ([1]; trunk injection): moderately reduced
"O=C(O)c1ccccc1O [SA, salicylic acid]",0.95,24.88,23.93,significantly reduced,,,1.73,25.34,23.61,ΔCT compared with that of OTC (in words) ([1]; trunk injection): not significantly different
